Data published in patent publication US20130102752A1, “BENZINDOCYANINE COMPOUND FOR LABELING SUBSTANCE, INTERMEDIATE THEREOF, AND METHOD FOR PREPARING THE SAME” (DKC CORPORATION, priority 2010, published 2013).

What was measured:
[1] = Absorption wavelength of the synthesized dye (HP 8452 diode array spectrophotometer); type: physicochemical
Procedure: (§1) First, the experimental apparatuses, analytical instruments and reagents used in the examples and experiments are described. Bruker's Avance 300 and 400 were used for FT-NMR spectroscopy, and the Voyager MALDI-TOF DE mass spectrometer was used for MALDI-TOF M/S. Absorption wavelength of the synthesized dye and the absorbance at maximum absorption wavelength were measured using Hewlett-Packard's HP 8452 diode array spectrophotometer. Emission wavelength and light emission at maximum emission wavelength were measured using Perkin Elmer's LS-55.

[2] = Emission wavelength at maximum emission (Perkin Elmer LS-55); type: physicochemical
Procedure: as §1

[3] = test system: marker proteins (Amersham LMW calibration kit: phosphorylase b, albumin, ovalbumin, carbonic anhydrase, trypsin inhibitor, α-lactalbumin); test: Staining of proteins, separated by gel electrophoresis, fluorescence image; conditions: 0.1M phosphate buffer pH 9.0, room temperature, 1 hour; electrophoresis 125 V, 2 hours
Procedure: Gel electrophoresis was carried out using Bio-Rad's PowerPac Basic Power Supply (Catalog No. 164-5050) coupled to the Amersham Biosciences's SE260 mini-vertical gel electrophoresis unit. Lonza's PAGEr Gold Precast Gels (polyacrylamide gels for protein electrophoresis, 10-20% Tris-glycine gels, Catalog No. 59506) were used as gels. Running and loading buffers for SDS-PAGE were prepared as follows prior to use.
Size markers commercially available from GE Healthcare and Takara were used as proteins. Perkin Elmer's Geliance 600 was used for observation of labeled biomolecules and measurement of fluorescence intensity. Geliance UV Epi (Catalog No. L7110026) and Geliance Blue Epi (Catalog No. L7110027) were used as light sources. Measurement was carried out using UV filter, Geliance short-pass filter (500-600 nm), Geliance long-pass filter (580-660 nm) and Geliance blue light filter (550-600 nm) while changing the filters in accordance with fluorescence wavelengths.
Each vial of one pack of Amersham™ LMW calibration kit (17-0446-01) for SDS electrophoresis commercially available from GE Healthcare contains 576 μg of six marker proteins, which are phosphorylase b (97 kD, 67 μg), albumin (66 kD, 83 μg), ovalbumin (45 kD, 147 μg), carbonic anhydrase (30 kD, 83 μg), trypsin inhibitor (20.1 kD, 80 μg) and α-lactalbumin (14.4 kD, 116 μg). […]

Structure (SMILES)	λabs (methanol) [1] [nm]	λfl (methanol) [2] [nm]	λabs (water) [1] [nm]	λfl (water) [2] [nm]	visibility of stained proteins after gel electrophoresis (FIG. 1) [3]
C=CS(=O)(=O)CCNC(=O)CCCCCN1/C(=C/C=C/C=C/C2=[N+](CC)c3ccc4ccccc4c3C2(C)C)C(C)(C)c2c1ccc1ccccc21 [Compound 1-4]	680	710	–	–	–
C=CS(=O)(=O)CCNC(=O)CCCCCCCN1/C(=C/C=C/C=C/C2=[N+](CC)c3ccc4c(S(=O)(=O)O)cc(S(=O)(=O)[O-])cc4c3C2(C)C)C(C)(C)c2c1ccc1c(S(=O)(=O)O)cc(S(=O)(=O)O)cc21 [Compound 1-5]	–	–	675	704	–
C=CS(=O)(=O)CCNC(=O)CCCCCN1/C(=C/C=C/C=C/C2=[N+](CC)c3ccc4c(S(=O)(=O)[O-])cc(S(=O)(=O)O)cc4c3C2(C)C)C(C)(C)c2c1ccc1c(S(=O)(=O)O)cc(S(=O)(=O)O)cc21 [Compound 1-1]	–	–	675	695	discernible with naked eyes
C=CS(=O)(=O)CCNC(=O)CCCCCN1/C(=C/C=C/C2=[N+](CC)c3ccc4c(S(=O)(=O)[O-])cc(S(=O)(=O)O)cc4c3C2(C)C)C(C)(C)c2c1ccc1c(S(=O)(=O)O)cc(S(=O)(=O)O)cc21 [Compound 1-3]	–	–	579	594	–
CC[N+]1=C(/C=C/C=C/C=C/C=C2/N(CCCCCC(=O)O)c3ccc4c(S(=O)(=O)O)cc(S(=O)(=O)O)cc4c3C2(C)C)C(C)(C)c2c1ccc1c(S(=O)(=O)[O-])cc(S(=O)(=O)O)cc21 [Compound 10-3]	–	–	777	803	–
C=CS(=O)(=O)CCNC(=O)CCCCCN1/C(=C/C=C/C=C/C=C/C2=[N+](CC)c3ccc4c(S(=O)(=O)[O-])cc(S(=O)(=O)O)cc4c3C2(C)C)C(C)(C)c2c1ccc1c(S(=O)(=O)O)cc(S(=O)(=O)O)cc21 [Compound 1-2]	–	–	777	803	discernible with naked eyes
CC[N+]1=C(/C=C/C=C/C=C2/N(CCCCCC(=O)O)c3ccc4c(S(=O)(=O)O)cc(S(=O)(=O)O)cc4c3C2(C)C)C(C)(C)c2c1ccc1c(S(=O)(=O)[O-])cc(S(=O)(=O)O)cc21 [Compound 10-1]	–	–	675	695	–
CC[N+]1=C(/C=C/C=C/C=C2/N(CCCCCCCC(=O)O)c3ccc4c(S(=O)(=O)O)cc(S(=O)(=O)O)cc4c3C2(C)C)C(C)(C)c2c1ccc1c(S(=O)(=O)O)cc(S(=O)(=O)[O-])cc21 [Compound 10-5]	–	–	675	704	–
CC[N+]1=C(/C=C/C=C2/N(CCCCCC(=O)O)c3ccc4c(S(=O)(=O)O)cc(S(=O)(=O)O)cc4c3C2(C)C)C(C)(C)c2c1ccc1c(S(=O)(=O)[O-])cc(S(=O)(=O)O)cc21	–	–	579	594	–
CC[N+]1=C(/C=C/C=C/C=C2/N(CCCCCC(=O)O)c3ccc4ccccc4c3C2(C)C)C(C)(C)c2c1ccc1ccccc21 [Compound 10-4]	697	713	–	–	–
